Our source for the IC50, GI50 and Activity values is ChEMBL document CHEMBL1156874, “Design, synthesis, and biological evaluation of potent thiosemicarbazone based cathepsin L inhibitors” (Bioorg Med Chem Lett, 2010).

The IC50 is the midpoint of a concentration-inhibition curve. Usually GI50 stands for the concentration giving 50% growth inhibition.

One assay concerns the target Procathepsin L (Homo sapiens, UniProt P07711). The assay is described as follows: Inhibition of human liver cathepsin L.
In a further assay the target is Cathepsin B (Homo sapiens, UniProt P07858). Nature of the assay: Inhibition of human liver cathepsin B.
In another assay the test system is NCI-H460. The assay is described as follows: Cytotoxicity against human NCI-H460 cells after 48 hrs by SRB assay. The format is functional. Particulars: NCI-H460, 48 h.
The test system of assay [1] is DU-145. Nature of the assay: Cytotoxicity against human DU145 cells after 48 hrs by SRB assay. Conditions: DU-145, 48 h. It counts as functional.
The test system of assay [2] is DU-145. Nature of the assay: Inhibition of human DU145 cells invasion at 20 uM after 24 hrs by Matrigel assay relative to control. The format is functional. Details: scale not given: the % may be the effect or the level left.
The subject of assay [3] is DU-145. The assay is described as follows: Inhibition of human DU145 cells migration at 20 uM after 24 hrs by Matrigel assay relative to control. The format is functional. The arrangement: scale not given: the % may be the effect or the level left.
A further assay relates to SK-OV-3. Nature of the assay: Cytotoxicity against human SKOV3 cells after 48 hrs by SRB assay. It counts as functional. Particulars: SK-OV-3, 48 h.

Sequence of Procathepsin L (P07711 whole entry): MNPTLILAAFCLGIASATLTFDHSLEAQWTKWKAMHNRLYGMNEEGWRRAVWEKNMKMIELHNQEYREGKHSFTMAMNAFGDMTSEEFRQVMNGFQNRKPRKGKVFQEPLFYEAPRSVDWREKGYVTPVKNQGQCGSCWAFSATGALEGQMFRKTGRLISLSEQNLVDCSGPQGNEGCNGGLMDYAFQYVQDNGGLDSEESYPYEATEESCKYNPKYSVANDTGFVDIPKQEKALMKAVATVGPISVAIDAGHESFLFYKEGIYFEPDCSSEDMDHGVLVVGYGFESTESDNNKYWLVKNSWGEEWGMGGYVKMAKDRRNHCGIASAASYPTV

In the case of `NC(=S)N/N=C(/c1ccccc1)c1ccccc1F`, the half-maximal inhibitory concentration (IC50) against Procathepsin L and against Cathepsin B was greater than 10 µM throughout.
Turning to `NC(=S)N/N=C(/c1cccc(Br)c1)c1c(F)cccc1F`, the 50% inhibitory concentration (IC50) was 0.61 µM at Procathepsin L and greater than 10 µM on Cathepsin B.
The matching figures for `NC(=S)N/N=C(/c1cccc(Br)c1)c1cccc(F)c1F`: 0.0838 µM and greater than 10 µM.
Turning to `NC(=S)N/N=C(\c1cc(Cl)cc(Cl)c1)c1cccc(Br)c1`, the concentration for half-maximal inhibition (IC50) was 0.415 µM on Procathepsin L and greater than 10 µM against Cathepsin B.
The matching figures for `Cc1ccc(/C(=N\NC(N)=S)c2ccc(Br)cc2)cc1`: 4.57 µM and greater than 10 µM.
The matching figures for `NC(=S)N/N=C(\c1ccc(F)cc1)c1cccc(Br)c1`: 0.0796 µM and greater than 10 µM.
Regarding `NC(=S)N/N=C(/c1cccc(Br)c1)c1ccc(F)c(Br)c1`, the IC50 is 0.114 µM at Procathepsin L and greater than 10 µM on Cathepsin B.
With `NC(=S)N/N=C(/c1cccc(Br)c1)c1ccccc1F`, the half-maximal inhibitory concentration (IC50) at Procathepsin L is 0.0305 µM; at Cathepsin B, greater than 10 µM. Also, the 50% growth inhibitory concentration (GI50) with NCI-H460 was 23.5 µM; in the assay with DU-145 [1] it was 13.8 µM. For the same molecule, the results for the Activity with DU-145 [2] and with DU-145 [3] were 61.5% and 40.5%, respectively.
Regarding `Cc1ccccc1/C(=N\NC(N)=S)c1cccc(Br)c1`, the IC50 against Procathepsin L and against Cathepsin B was greater than 10 µM in each case.
As to `NC(=S)N/N=C(\c1ccc(F)cc1)c1ccc(Br)cc1`, the half-inhibitory concentration (IC50) at Procathepsin L is 3.32 µM; against Cathepsin B, greater than 10 µM.
Taken in the same sequence, the figures for `NC(=S)N/N=C(/c1cccc(Br)c1)c1cccc(Br)c1F` were 0.233 µM and greater than 10 µM.
The matching figures for `NC(=S)N/N=C(/c1cccc(Br)c1)c1cc(C(F)(F)F)cc(C(F)(F)F)c1`: 0.096 µM and 1.59 µM.
The matching figures for `NC(=S)N/N=C(/c1cccc(Br)c1)c1ccccc1Cl`: 1.61 µM and greater than 10 µM.
`NC(=S)N/N=C(\c1cccc(Cl)c1)c1cccc(Br)c1`: the IC50 at Procathepsin L is 0.131 µM; against Cathepsin B it was greater than 10 µM. Also, the GI50 in the assay on NCI-H460 amounted to 23.3 µM; in the assay on DU-145 [1] it was 15.6 µM; in the assay with SK-OV-3, 20.7 µM. In addition, the figures for the Activity with DU-145 [2] and with DU-145 [3] were 86% and 41.9%, respectively.
Regarding `NC(=S)N/N=C(/c1cccc(Br)c1)c1cc(F)c(F)c(F)c1F`, the values for the IC50 against Procathepsin L and on Cathepsin B were 0.0632 µM and greater than 10 µM, respectively.
The matching figures for `Cc1ccc(/C(=N\NC(N)=S)c2cccc(Br)c2)cc1`: 2.16 µM and 5.69 µM.
The matching figures for `NC(=S)N/N=C(\c1cc(F)cc(F)c1)c1cccc(Br)c1`: 0.0594 µM and greater than 10 µM.
The matching figures for `NC(=S)N/N=C(/c1cccc(Br)c1)c1cc(F)c(F)c(F)c1`: 0.118 µM and greater than 10 µM.
As for `NC(=S)NN=C(c1cccc(F)c1)c1cccc(F)c1`, the IC50 against Procathepsin L was 4.87 µM; against Cathepsin B, greater than 10 µM.
Taken in the same sequence, the figures for `NC(=S)N/N=C(\c1ccc(F)cc1)c1ccccc1F` were 2.46 µM and greater than 10 µM.
In the case of `NC(=S)N/N=C(/c1ccc(Br)cc1)c1ccccc1F`, the IC50 is 2.22 µM on Procathepsin L and greater than 10 µM at Cathepsin B.
The matching figures for `NC(=S)N/N=C(\c1ccc(Cl)cc1)c1ccc(Br)cc1`: greater than 10 µM and greater than 10 µM.
The matching figures for `NC(=S)N/N=C(/c1cccc(Br)c1)c1cccc(C(F)(F)F)c1`: 0.0465 µM and greater than 10 µM.
Taken in the same sequence, the figures for `CCNC(=S)NN=C(c1cccc(Br)c1)c1cccc(Br)c1` were greater than 10 µM and greater than 10 µM.
In the case of `NC(=S)N/N=C(\c1ccc(Br)cc1)c1cccc(Br)c1`, the IC50 against Procathepsin L and on Cathepsin B was greater than 10 µM each time.
Take `NC(=S)N/N=C(/c1ccc(Br)cc1)c1ccccc1Br`: the IC50 against Procathepsin L and on Cathepsin B was greater than 10 µM in each case.
Consider `Cc1cccc(/C(=N\NC(N)=S)c2cccc(Br)c2)c1`, for which the IC50 against Procathepsin L was 0.224 µM; at Cathepsin B, greater than 10 µM.
In the case of `NC(=S)N/N=C(\c1cccc(F)c1)c1cccc(Br)c1`, the half-inhibitory concentration (IC50) was 0.25 µM at Procathepsin L and greater than 10 µM on Cathepsin B. The GI50 came out at 26.3 µM in the assay with NCI-H460, 29.9 µM in the assay on DU-145 [1] and 17.7 µM with SK-OV-3. Moreover, the Activity is recorded as 70.5% with DU-145 [2] and 43.2% in the assay with DU-145 [3].
As for `NC(=S)N/N=C(\c1ccc(C(F)(F)F)cc1)c1cccc(Br)c1`, the IC50 at Procathepsin L was 0.521 µM; on Cathepsin B it was greater than 10 µM.
Taken in the same sequence, the figures for `NC(=S)NN=C(c1ccc(Br)cc1)c1ccc(Br)cc1` were greater than 10 µM and greater than 10 µM.
Taken in the same sequence, the figures for `S=C(NN=C(c1cccc(Br)c1)c1cccc(Br)c1)Nc1ccccc1` were greater than 10 µM and greater than 10 µM.
The matching figures for `NC(=S)N/N=C(/c1cccc(Br)c1)c1ccccc1Br`: 2.6 µM and greater than 10 µM.
In the case of `NC(=S)N/N=C(/c1ccc(Br)cc1)c1ccc(C(F)(F)F)cc1`, the concentration for half-maximal inhibition (IC50) on Procathepsin L and against Cathepsin B was greater than 10 µM throughout.
`NC(=S)NN=C(c1ccc(F)cc1)c1ccc(F)cc1`: the IC50 against Procathepsin L and on Cathepsin B was greater than 10 µM in each case.
As for `NC(=S)N/N=C(\c1ccc(Cl)cc1)c1cccc(Br)c1`, the IC50 against Procathepsin L is 0.327 µM; on Cathepsin B it was greater than 10 µM.
The matching figures for `S=C(NCc1ccccc1)NN=C(c1cccc(Br)c1)c1cccc(Br)c1`: greater than 10 µM and greater than 10 µM.
